Laboratory results as given in article PMC3280214, “Structure Based Discovery of Small Molecules to Regulate the Activity of Human Insulin Degrading Enzyme” (PLoS ONE, 2012).
Where “and” joins values, the source holds several entries; their conditions need not be identical. Equal entries are not always repeated.

Key:
HeLa cells = experiment: MTT assay for cell viability; type: cell-based, human; settings: 24 h; for cytotoxicity at high concentrations: 1 to 100 µM
Source text: We characterized the activity of novel compounds in a cellular assay to establish whether there were any cytotoxic effects. We used an established MTT (3-(4,5-dimethylthiazolyl-2)-2, 5-diphenyltetrazolium bromide or thiazolyl blue) method using HELA cells to determine whether the small molecule affects cell viability. In this method, a purple formazan dye forms as a result of the cleavage of the yellow tetrazolium MTT within metabolically active cells. The resulting precipitate of the intracellular formazan can be dissolved in a detergent solution and quantified spectrophotometrically at 595 nm. We measured the cytotoxicity by incubating HELA cells in the presence of novel compounds at concentrations ranging from 1 to 100 µM for 24 h. Cell viability was measured using the MTT method after […] culture. The extent of cell death was expressed relative to a control containing DMSO. […] Therefore, as a next step we tested the effects of lead compounds on insulin catabolism using HeLa cells.
The cytotoxicity assay was performed using human cervical cancer HeLa cells. Cells were cultured at 37°C under a humidified atmosphere of 5% CO2 in medium supplemented with 10% fetal bovine serum and dispersed in replicate 96-well plates with 2.5×10^4 cells/well. Compounds were then added. After 24 hours exposure to the chemical compounds, the cell viability was determined by 3-[4,5-dimethylthiazol-2-yl]-2,5-diphenpyltetrazolium bromide (MTT) assay. The optical density (OD) of the wells was determined using ELISA plate reader at a test wavelength of 600 nm and a reference wavelength of 630 nm. Each measurement was carried out in triplicate.

IDE = biological target: T1, IDE (Homo sapiens, UniProt P14735); experiment: Degradation of fluorogenic substrate V by IDE; type: biochemical; settings: for increase of IDE-mediated substrate V degradation: 20 µM compound; for EC50: dose response, Sigmoidal Hill 4 parameter fit
T1 construct: made in house; host or cells: E. coli BL21
T1 sequence (P14735 1-1019): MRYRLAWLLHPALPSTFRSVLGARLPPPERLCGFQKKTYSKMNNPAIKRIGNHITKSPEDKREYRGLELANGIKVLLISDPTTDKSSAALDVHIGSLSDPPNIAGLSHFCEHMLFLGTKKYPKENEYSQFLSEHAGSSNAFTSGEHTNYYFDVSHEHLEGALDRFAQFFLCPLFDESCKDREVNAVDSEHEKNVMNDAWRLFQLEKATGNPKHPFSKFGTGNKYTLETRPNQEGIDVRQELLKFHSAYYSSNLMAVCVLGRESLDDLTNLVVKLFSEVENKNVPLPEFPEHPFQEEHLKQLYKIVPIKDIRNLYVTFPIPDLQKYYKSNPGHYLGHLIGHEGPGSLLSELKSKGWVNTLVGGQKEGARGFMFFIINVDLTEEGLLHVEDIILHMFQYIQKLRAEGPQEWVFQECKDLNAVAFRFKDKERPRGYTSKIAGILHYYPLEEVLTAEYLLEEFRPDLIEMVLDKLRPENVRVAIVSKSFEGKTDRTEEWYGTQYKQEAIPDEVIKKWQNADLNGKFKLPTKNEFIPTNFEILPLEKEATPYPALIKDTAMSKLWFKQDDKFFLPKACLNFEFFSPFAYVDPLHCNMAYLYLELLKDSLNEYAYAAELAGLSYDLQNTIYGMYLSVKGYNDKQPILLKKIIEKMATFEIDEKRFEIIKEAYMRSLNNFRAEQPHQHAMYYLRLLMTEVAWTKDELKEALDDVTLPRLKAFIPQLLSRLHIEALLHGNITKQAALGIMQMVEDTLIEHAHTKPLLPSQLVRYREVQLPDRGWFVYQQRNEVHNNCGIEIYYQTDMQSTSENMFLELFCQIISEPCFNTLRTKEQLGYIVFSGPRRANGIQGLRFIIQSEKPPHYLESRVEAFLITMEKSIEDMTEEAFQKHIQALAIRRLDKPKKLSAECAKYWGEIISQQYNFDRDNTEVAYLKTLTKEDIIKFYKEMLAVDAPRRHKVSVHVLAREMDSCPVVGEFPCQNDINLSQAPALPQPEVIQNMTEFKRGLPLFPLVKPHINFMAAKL
Description: The 10 compounds given in Table 1 were subjected to further characterization and their effect was measured on the proteolytic activity of IDE using different substrates. Initially, activity assays were carried out at fixed 20 µM concentrations for all molecules to identify the effect of those compounds on IDE activity. IDE activity was quantified by monitoring the change in fluorescence for the proteolysis of fluorogenic-substrate V, FITC- insulin-bound antibody, and FAβB by recombinant human IDE purified from E.coli BL21 [6], [18], [19]. […] Also, D6 increased the amyloid-β degradation by 20% (Fig. S1C). Further, D10 enhanced IDE-mediated FITC-insulin-mAb and substrate V degradation by 290% and 65%, respectively (Fig. S1A, B). Next, an EC50 value of each molecule that enhanced IDE activity was determined with a dose response assay, where specific activity of IDE was measured with different concentrations of the lead compounds and then the plot was fit to Sigmoidal Hill-4 parameter equation. […] EC50 value for D3 on insulin degradation was approximately measured as 20 µM (Fig. S2C), whereas EC50 value for D6 on amyloid-β degradation was 2 µM (Fig. S2D). […] Among all these four compounds, D10 seems to be the potent activator of IDE, when proteolysis of insulin is considered.
To assess the utility of these novel compounds as chemical regulators for IDE activity, we used fluorescence assay with fluorogenic substrate V (7-methoxycoumarin-4-yl-acetyl-NPPGFSAFK-2, 4-dinitrophenyl). Reaction was carried out in the presence of 105 µl of 10 µl of 40 µM substrate V; 10 µl of 0.02 mg/ml of IDE in 83 µl of 30 mM KH2PO4 at pH of 7.3, and various concentrations (0–35 µM) compounds and also with various time intervals (0–4 hours). The reaction mixture was incubated at 37°C for 2.5 h. The hydrolysis of substrate V was monitored using a Tecan Safire2 microplate reader with excitation and emission wavelengths set at 300 and 395 nm, respectively.
The effect of the lead compounds on the initial rate of proteolysis of IDE was determined by measurement in fluorescence with time both in the presence and absence of the lead compounds. The kinetic data for IDE-mediated insulin, substrate V and amyloid-β degradation were plotted and fitted using SigmaPlot software (Sigmoidal, Hill, 4 parameter). For the initial rate calculations, kinetic data were fitted using SigmaPlot software (Hyperbola; Single Rectangular I, 3 Parameter).

SMILES: Nc1c(C(=O)Nc2ccccc2F)c2ccccn2c1C(=O)c1ccc2c(c1)CCCC2 [Compound D4]
- cell viability (HeLa cells; 7.5 µM): approximately 85%
- cell viability (HeLa cells; 100 µM): 60%
- increase of IDE-mediated substrate V degradation (IDE): 36%
- EC50 (IDE): 7 µM

SMILES: COc1ccc(C2C(C(=O)Nc3ccccc3)=C(C)N=c3sc(=Cc4cn(C)nc4C)c(=O)n32)cc1 (stereo not drawn) [Compound D3]
- cytotoxicity at high concentrations (HeLa cells): did not demonstrate any toxicity

SMILES: Cc1nn(-c2ccccc2)c2nc(-c3cccc([N+](=O)[O-])c3)n3c4ccccc4nc3c2c1=O [Compound D10]
- cytotoxicity at high concentrations (HeLa cells): did not demonstrate any toxicity
- increase of IDE-mediated substrate V degradation (IDE): 65% and 60%
- EC50 (IDE): 13 µM
- increase of initial rate of substrate V degradation (IDE; presence vs absence of compound): about 2 fold
